SMILES strings stand for the structures. ≈ marks a conversion by molar mass, not a printed value. Like-named read-outs stand apart in the source and are kept apart here.

One assay concerns F. asiaticum. In words: Spore germination method, indoor toxicity on Fusarium. Format: cell-based. The procedure: Experimental methods and specific experimental steps for indoor toxicology determination of Fusarium were as follows:
Step (1): Collection of spores. Five plates (5 mm) evenly distributed on the edge of a medium for Fusarium cultured at 25° C. for 3 d were taken and placed in the CMC medium. After culture under shaking at 175 rpm and 25° C. for 5 d, a filtrate was collected with three layers of sterile lens-cleaning paper. Centrifuging was carried out at 10,000 rpm for 10 min. Washing was carried out twice with sterile water (10,000 rpm, 10 min/time). A spore concentration was adjusted to 1×10^4 ml^1.
Step (2): Setting of concentration gradients of drugs. […] Drugs and spore solutions were mixed, drawn to a cell culture plate and incubated in a thermostat incubator at 25° C. for a period of time.
Step (3): Investigation results and statistical analysis. When a spore germination rate of control group was >90%, spore germination was observed and analyzed statistically.
Spore germination rate (%)=number of germinated spores/number of inspected spores×100
Corrected germination rate (%)=(germination rate for control−germination rate for treatment)/([…])×100

The subject of the next assay is Trichoderma. In words: Hyphae growth rate method (PDA plate method). The assay is classed as cell-based.
Another assay has as its system F. oxysporum. Put plainly: Spore germination method, indoor toxicity on Fusarium. The assay is classed as cell-based.
A further assay deals with wheat scab (Fg2021). Format: in vivo. The settings on record: wheat at flowering, vs control group.
Assay [1] deals with Botrytis cinerea. Put plainly: Spore germination method on Botrytis cinerea. Format: cell-based.
The test system of a further assay is Fusarium Fg2021. Put plainly: Indoor in vivo efficacy on Fusarium, wheat coleoptiles. More on the design: species or system Fusarium Fg2021 on wheat (Yumai 35) seedlings. The settings on record: Fg2021, 7 d, vs control. The procedure:
Seeds of Yumai 35 were sterilized with 0.1% mercury dichloride for 5 min, rinsed with sterile water for 3 times and immersed for 2 h. The seeds were evenly placed in plastic boxes laid with double layers of sterile filter paper with 30 seeds a box. Cultivation was carried out at 25° C. with 90% humidity and a cycle of 12 h light and 12 h dark in a light incubator for 2 d. […] 12 h later, tips of the coleoptiles were cut. Cut wounds were inoculated with 5 μL of 5×10^5 cells/mL Fg2021 spore solution respectively. Cultivation was carried out in the light incubator. 7 d later, length of disease spot was investigated.

For a further assay, the system named is pathogenic Phytophthora. Put plainly: Hyphae growth rate method (PDA plate method). Format: cell-based. From the text: Step 1): Setting of concentration gradients of drugs.
Step 2): Determination of EC50 values of drugs against pathogenic Phytophthora with a hyphae growth rate method (PDA plate method)

For another assay, the system named is Pyricularia oryzae. Put plainly: microbe, parasite or virus in culture. The assay is classed as cell-based.
Assay [2] deals with Botrytis cinerea. Put plainly: Indoor in vivo efficacy on Botrytis cinerea, cucumber leaves. The following applies: 4 d, vs control.
In another assay the test system is F. graminearum. In words: microbe, parasite or virus in culture. The assay is classed as cell-based.
In a further assay the test system is F. solani. In words: Spore germination method, indoor toxicity on Fusarium. The assay is classed as cell-based.
The subject of another assay is Penicillium. In words: Hyphae growth rate method (PDA plate method). Format: cell-based.
A further assay has as its system F. verticilloides. In words: Spore germination method, indoor toxicity on Fusarium. Format: cell-based.
Another assay deals with Pyricularia oryzae Guy11. The assay is classed as in vivo, Pyricularia oryzae Guy 11 on barley leaves. The settings on record: Guy11, 6 d.
Where [3] appears, read: 15 μM sprayed on wheat coleoptiles.
The mark [4] stands for this setting: 7.5 mM sprayed on wheat coleoptiles.

Consider `O=C(O)CN(CCN(CC(=O)O)CC(=O)O)CCN(CC(=O)O)CC(=O)O` [DTPA, diethylenetriaminepentaacetic acid], for which the EC50 in the assay with F. asiaticum amounted to 8.76 µg/mL (≈ 22.3 µM); with Trichoderma (hyphae growth rate), 7.6421 µg/mL (≈ 19.4 µM); in the assay on F. oxysporum (F. oxysporum, spore germination) it was 17.77 µg/mL (≈ 45.2 µM); in the assay on Botrytis cinerea [1] (spore germination) it was 1.85 µg/mL (≈ 4.7 µM); in the assay on pathogenic Phytophthora it was 20.35 µg/mL (≈ 51.7 µM); with Pyricularia oryzae, 9.45 µg/mL (≈ 24 µM). Moreover, the EC50 amounted to 16.22 µg/mL (≈ 41.2 µM) with F. graminearum (F. graminearum, spore germination); 17.80 µg/mL (≈ 45.3 µM) in the assay on F. solani (F. solani, spore germination); 4.3704 µg/mL (≈ 11.1 µM) in the assay with Penicillium (hyphae growth rate); 18.82 µg/mL (≈ 47.8 µM) with F. verticilloides (F. verticilloides, spore germination). For the same compound, the “disease of wheat ears (diseased spikelets)” value (from here on “disease of wheat ears”) in the assay with wheat scab (Fg2021) (7 g ha^−1, field) was “significantly lighter disease”. In the assay on Fusarium Fg2021 (setting [3]), the “length of disease spot” value is given as “significantly shorter disease spots”. Moreover, the disease spots entry in the assay with Botrytis cinerea [2] (10 mM sprayed on cucumber leaves) is listed as “significantly shorter disease spots”.

Consider `O=C([O-])CN(CCN(CC(=O)[O-])CC(=O)[O-])CCN(CC(=O)[O-])CC(=O)[O-].[H+].[H+].[Na+].[Na+].[Na+]` [DTPANa3], for which, in the assay on Botrytis cinerea [1] (spore germination), the EC50 is 1.88 µg/mL. Moreover, the disease spots result with Pyricularia oryzae Guy11 (10 mM sprayed on barley leaves) is on record as “significantly reduced disease spots”.

In the case of `O=C([O-])CN(CCN(CC(=O)[O-])CC(=O)[O-])CCN(CC(=O)[O-])CC(=O)[O-].[Na+].[Na+].[Na+].[Na+].[Na+]` [DTPANa5], the “length of disease spot” value with Fusarium Fg2021 (setting [3]) is recorded as “significantly shorter disease spots”. In the assay on Pyricularia oryzae, this compound yielded an EC50 of 9.32 µg/mL.

Take `O=C(O)CN(CCN(CC(=O)O)CC(=O)O)CC(=O)O` [EDTA, ethylenediaminetetraacetic acid]: the EC50 in the assay on F. asiaticum (read-out: EC50) is 8.76 µg/mL (≈ 30 µM); in the assay with Trichoderma, 6.12 µg/mL (≈ 20.9 µM); in the assay with F. oxysporum (Fusarium oxysporum), 17.7 µg/mL (≈ 60.5 µM); in the assay on Botrytis cinerea [1] it was 1.63 µg/mL (≈ 5.58 µM); in the assay with pathogenic Phytophthora (read-out: EC50), 18.2 µg/mL (≈ 62.4 µM); in the assay on Pyricularia oryzae it was 9.75 µg/mL (≈ 33.4 µM). In addition, the EC50 in the assay with F. graminearum (Fusarium graminearum) turned out to be 17.8 µg/mL (≈ 60.8 µM); in the assay on F. solani (Fusarium solani), 17.5 µg/mL (≈ 59.9 µM); with Penicillium it was 3.15 µg/mL (≈ 10.8 µM); in the assay on F. verticilloides it was 19 µg/mL (≈ 65.1 µM). Besides, in the assay with wheat scab (Fg2021) (7 g ha^−1, field), the “disease of wheat ears” value is “significantly lighter disease”. The “length of disease spot” value in the assay with Fusarium Fg2021 (setting [4]) was “significantly shorter disease spots”. Further, the disease spots entry in the assay with Botrytis cinerea [2] (25 mM sprayed on cucumber leaves) is on record as “significantly shorter disease spots”.

Turning to `O=C([O-])CN(CCN(CC(=O)[O-])CC(=O)[O-])CC(=O)[O-].[Mg+2].[Mg+2]` [EDTAMg2], the disease spots entry in the assay with Botrytis cinerea [2] (30 mM sprayed on cucumber leaves) is reported as “significantly shorter disease spots”.

For the compound `O=C([O-])CN(CCN(CC(=O)[O-])CC(=O)O)CC(=O)O.[Na+].[Na+]` [EDTANa2], the EC50 was 1.12 µg/mL in the assay with Botrytis cinerea [1] (spore germination) and 19.39 µg/mL with pathogenic Phytophthora. The disease spots result in the assay with Pyricularia oryzae Guy11 (30 mM sprayed on barley leaves) is given as “significantly reduced disease spots”.

For the compound `O=C([O-])CN(CCN(CC(=O)[O-])CC(=O)O)CC(=O)[O-].[Na+].[Na+].[Na+]` [EDTANa3], the EC50 in the assay with pathogenic Phytophthora stood at 17.56 µg/mL.

Consider `O=C([O-])CN(CCN(CC(=O)[O-])CC(=O)[O-])CC(=O)[O-].[Na+].[Na+].[Na+].[Na+]` [EDTANa4], for which the “length of disease spot” value in the assay on Fusarium Fg2021 (setting [4]) is on record as “significantly shorter disease spots”. Further, the EC50 with Pyricularia oryzae is 9.01 µg/mL.

On to `COC(=O)Nc1nc2ccccc2[nH]1` [carbendazim, reference compound], for which the “disease of wheat ears” value in the assay on wheat scab (Fg2021) (140 g ha^−1, field) is given as “significantly lighter disease”.
